Measurements published in PubChem BioAssay AID330 (DTP/NCI, 2004).
“And” between values parts separate entries of the source, which are not always exact repeats. Equal entries are not always repeated. Inconclusive results and toxic doses are left out. The calls were made as follows: active = survival T/C of 150% or more; inactive = T/C below 125% in these data.

System: P388 leukemia ip, CD2F1 mice, survival T/C
Assay: NCI In Vivo Anticancer Drug Screen. Data for tumor model P388 Leukemia (intraperitoneal) in CD2F1 (CDF1) mice
Conditions: endpoint: median survival time, higher = longer survival
Summary of the method: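 Mice carrying the transplanted tumor received test compound or vehicle. Survival was recorded in each group, and the value is the treated-group measurement divided by that of the vehicle-treated control group.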

[1] = dose: 12.5 mg/kg/injection, schedule: Q01DX009 (ip), vehicle: saline with Tween-80
[2] = dose: 25.0 mg/kg/injection, schedule: Q01DX009 (ip), vehicle: saline with Tween-80
[3] = dose: 50.0 mg/kg/injection, schedule: Q01DX009 (ip), vehicle: saline with Tween-80
[4] = dose: 60.0 mg/kg/injection, schedule: Q01DX005 (ip), vehicle: saline with Tween-80
[5] = dose: 120.0 mg/kg/injection, schedule: Q01DX005 (ip), vehicle: saline with Tween-80
[6] = dose: 50.0 mg/kg/injection, schedule: Q01DX005 (ip), vehicle: saline with Tween-80
[7] = dose: 100.0 mg/kg/injection, schedule: Q01DX005 (ip), vehicle: saline with Tween-80
[8] = dose: 100.0 mg/kg/injection, schedule: Q01DX009 (ip), vehicle: saline with Tween-80
[9] = dose: 200.0 mg/kg/injection, schedule: Q01DX009 (ip), vehicle: saline with Tween-80
[10] = dose: 50.0 mg/kg/injection, schedule: Q01DX005 (ip), vehicle: Klucel (hydroxypropylcellulose) (HPC)
[11] = dose: 100.0 mg/kg/injection, schedule: Q01DX005 (ip), vehicle: Klucel (hydroxypropylcellulose) (HPC)
[12] = dose: 200.0 mg/kg/injection, schedule: Q01DX005 (ip), vehicle: Klucel (hydroxypropylcellulose) (HPC)
[13] = dose: 240.0 mg/kg/injection, schedule: Q01DX005 (ip), vehicle: saline with Tween-80

Measured: T/C

CN(C)[C@@H]1C(=O)C(C(N)=O)=C(O)[C@@]2(O)C(=O)C3=C(O)c4c(O)ccc(Cl)c4[C@@](C)(O)[C@H]3C[C@@H]12
inactive: dose: 100.0 mg/kg/injection, schedule: Q04DX003 (ip), vehicle: saline 104 % of control | dose: 200.0 mg/kg/injection, schedule: Q04DX003 (ip), vehicle: saline 113 % of control

CN(C)c1ccc(/C=C\C(=O)c2ccc(C(=O)/C=C/c3ccc(N(C)C)cc3)cc2)cc1
inactive: [1] 99 % of control | [2] 96 % of control | [3] 90 % of control

COc1ccc2c(NCCCCCCCCNc3c4ccc(OC)cc4nc4cc([N+](=O)[O-])ccc34)c3ccc([N+](=O)[O-])cc3nc2c1
inactive: dose: 0.63 mg/kg/injection, schedule: Q01DX009 (ip), vehicle: other 88 % of control | dose: 1.25 mg/kg/injection, schedule: Q01DX009 (ip), vehicle: other 88 % of control | dose: 2.5 mg/kg/injection, schedule: Q01DX009 (ip), vehicle: other 119 % of control | dose: 5.0 mg/kg/injection, schedule: Q01DX009 (ip), vehicle: other 120 % of control | dose: 10.0 mg/kg/injection, schedule: Q01DX009 (ip), vehicle: other 121 % of control | dose: 20.0 mg/kg/injection, schedule: Q01DX009 (ip), vehicle: other 120 % of control

O=C1CSC(C2CCCCC2)N1c1nncs1 (stereo not drawn)
inactive: dose: 30.0 mg/kg/injection, schedule: Q01DX005 (ip), vehicle: Klucel (hydroxypropylcellulose) (HPC) 100 % of control | dose: 60.0 mg/kg/injection, schedule: Q01DX005 (ip), vehicle: Klucel (hydroxypropylcellulose) (HPC) 100 % of control | dose: 120.0 mg/kg/injection, schedule: Q01DX005 (ip), vehicle: Klucel (hydroxypropylcellulose) (HPC) 101 % of control | dose: 240.0 mg/kg/injection, schedule: Q01DX005 (ip), vehicle: Klucel (hydroxypropylcellulose) (HPC) 107 % of control

Cc1cc(N=[N+]=[N-])c2ccccc2n1
inactive: [4] 105 % of control | [5] 94 % of control

CCCCCCCCCCCCOC1C=C(C)C(=O)O1 (stereo not drawn)
inactive: dose: 100.0 mg/kg/injection, schedule: Q04DX002 (ip), vehicle: saline with Tween-80 100 % of control | dose: 200.0 mg/kg/injection, schedule: Q04DX002 (ip), vehicle: saline with Tween-80 101 % of control | dose: 400.0 mg/kg/injection, schedule: Q04DX002 (ip), vehicle: saline with Tween-80 100 % of control

CC1(C)C2CCC1(CS(=O)O)C(=O)C2.[Ag] (stereo not drawn)
inactive: [6] 111 % of control | [7] 105 % of control

CN(C)/C=C(/N=C(C#N)C#N)C1OCCO1
inactive: dose: 12.5 mg/kg/injection, schedule: Q01DX005 (ip), vehicle: saline with Tween-80 100 % of control | dose: 25.0 mg/kg/injection, schedule: Q01DX005 (ip), vehicle: saline with Tween-80 112 % of control | [6] 117 % of control

Cc1cc2oc(=O)cc(C(=O)O)c2c(=O)o1
inactive: dose: 100.0 mg/kg/injection, schedule: Q04DX003 (ip), vehicle: Klucel (hydroxypropylcellulose) (HPC) 102 % of control | dose: 200.0 mg/kg/injection, schedule: Q04DX003 (ip), vehicle: Klucel (hydroxypropylcellulose) (HPC) 95 % of control | dose: 400.0 mg/kg/injection, schedule: Q04DX003 (ip), vehicle: Klucel (hydroxypropylcellulose) (HPC) 87 % of control

c1ccc(P2(c3ccccc3)(c3ccccc3)OCC3CC32)cc1 (stereo not drawn)
inactive: dose: 3.13 mg/kg/injection, schedule: Q01DX009 (ip), vehicle: saline with Tween-80 103 % of control | dose: 3.13 mg/kg/injection, schedule: Q01DX009 (ip), vehicle: saline 94 % of control | dose: 6.25 mg/kg/injection, schedule: Q01DX009 (ip), vehicle: saline with Tween-80 106 % of control | dose: 6.25 mg/kg/injection, schedule: Q01DX009 (ip), vehicle: saline 98 % of control | [1] 103 % of control and 124 % of control | dose: 12.5 mg/kg/injection, schedule: Q01DX009 (ip), vehicle: saline 95 % of control | [2] 100 % of control and 111 % of control | dose: 25.0 mg/kg/injection, schedule: Q01DX009 (ip), vehicle: saline 100 % of control | dose: 50.0 mg/kg/injection, schedule: Q01DX009 (ip), vehicle: olive oil, sesame oil, peanut oil 95 % of control | [3] 102 % of control

CCCCn1c2nc(=O)[nH]c(=O)c-2[n+]([O-])c2ccccc21
inactive: dose: 25.0 mg/kg/injection, schedule: Q01DX001 (ip), vehicle: saline with Tween-80 102 % of control | dose: 50.0 mg/kg/injection, schedule: Q01DX001 (ip), vehicle: saline with Tween-80 102 % of control

NNC(=O)c1cc2ccccc2cc1O
inactive: [3] 99 % of control | [8] 100 % of control | [9] 95 % of control

CC(=O)Nc1cc(N2CCCCC2)c(N)c2c1C(=O)c1ccccc1C2=O
inactive: [10] 102 % of control | [11] 97 % of control | [12] 98 % of control

COC(=O)c1ccc2cc1Nc1c(C#N)cnc(=S)n1-2
inactive: [3] 114 % of control | [8] 112 % of control | [9] 90 % of control

Cc1ncc(CO)c(C2NCCS2)c1O (stereo not drawn)
inactive: [4] 100 % of control | [5] 107 % of control | [13] 107 % of control

CCCCCn1cc[nH]c1=S
inactive: dose: 12.5 mg/kg/injection, schedule: Q01DX005 (ip), vehicle: Klucel (hydroxypropylcellulose) (HPC) 101 % of control | dose: 25.0 mg/kg/injection, schedule: Q01DX005 (ip), vehicle: Klucel (hydroxypropylcellulose) (HPC) 104 % of control | [10] 100 % of control and 101 % of control | [11] 104 % of control | [12] 110 % of control

O=C(/C=C\c1cc2[nH]c1c(-c1ccccc1)c1nc(c(-c3ccccc3)c3ccc([nH]3)c(-c3ccccc3)c3nc(c2-c2ccccc2)C=C3)C=C1)NCCCn1ccnc1
inactive: dose: 50.0 mg/kg/injection, schedule: Q01DX001 (ip), vehicle: Klucel (hydroxypropylcellulose) (HPC) 100 % of control | dose: 100.0 mg/kg/injection, schedule: Q01DX001 (ip), vehicle: Klucel (hydroxypropylcellulose) (HPC) 94 % of control | dose: 200.0 mg/kg/injection, schedule: Q01DX001 (ip), vehicle: Klucel (hydroxypropylcellulose) (HPC) 93 % of control | dose: 400.0 mg/kg/injection, schedule: Q01DX001 (ip), vehicle: Klucel (hydroxypropylcellulose) (HPC) 96 % of control

Cc1ccc2nc(CC(=O)c3ccc4ccccc4c3)c(=O)[nH]c2c1
inactive: [4] 99 % of control | [5] 92 % of control | [13] 94 % of control

CCO/C=C1\SC(=S)N(c2ccccc2OC)C1=O
inactive: dose: 88.0 mg/kg/injection, schedule: Q01DX009 (ip), vehicle: saline with Tween-80 118 % of control | dose: 100.0 mg/kg/injection, schedule: Q04DX003 (ip), vehicle: saline with Tween-80 104 % of control | dose: 132.0 mg/kg/injection, schedule: Q01DX009 (ip), vehicle: saline with Tween-80 119 % of control | dose: 178.0 mg/kg/injection, schedule: Q04DX003 (ip), vehicle: saline with Tween-80 118 % of control | [9] 112 % of control | dose: 200.0 mg/kg/injection, schedule: Q04DX003 (ip), vehicle: saline with Tween-80 109 % of control | dose: 266.0 mg/kg/injection, schedule: Q04DX003 (ip), vehicle: saline with Tween-80 118 % of control | dose: 400.0 mg/kg/injection, schedule: Q04DX003 (ip), vehicle: saline with Tween-80 122 % of control

CC(=O)/C(N=Nc1ccc(F)cc1F)=C(\C)O
inactive: [6] 103 % of control | [7] 103 % of control | dose: 200.0 mg/kg/injection, schedule: Q01DX005 (ip), vehicle: saline with Tween-80 107 % of control

NC1=C(O)C(=O)C2(O1)C(=O)Nc1ccccc12 (stereo not drawn)
inactive: [10] 100 % of control | [11] 100 % of control | [12] 106 % of control
